# Patent EP2476670A1, “Stable solid salts of ambrisentan” (Zentiva, K.S., priority 2011, dated 2012)
# Counter-ions that a name gives are not always drawn. Like-named read-outs stand apart in the source and are kept apart here.
# Tests used:
# [1] = pKa of the ionisable groups of ambrisentan; format: physicochemical
# [2] = Solubility of ambrisentan solid forms in water at 25 °C; format: physicochemical; conditions: approximate values
# Experimental: Solubility of all the salts are considerably higher compared to solubility of ambrisentan in the salt free form. Table. 1 Solubility of ambrisentan solid forms in water at 25 °C
Compound,Solubility [2],Solubility ([2]; sodium salt) [µg/mL],further results
"COC(c1ccccc1)(c1ccccc1)[C@H](Oc1nc(C)cc(C)n1)C(=O)O [Ambrisentan (Form R), (S)-2-(4,6-dimethylpyrimidin-2-yloxy)-3-methoxy-3,3-diphenylpropanoic acid]",∼ 0.05 mg/ml,,pKa ([1]; read-out: pKa of nitrogen in pyrimidine ring): 2.98 ± 0.3; pKa ([1]; read-out: pKa of the carboxylic group): 0.93 ± 0.1
"COC(c1ccccc1)(c1ccccc1)[C@H](Oc1nc(C)cc(C)n1)C(=O)O [Ambrisentan phosphate salt, ambrisentan phosphate salt]",,,Solubility ([2]; phosphate salt): ∼ 0.1 mg/ml
"COC(c1ccccc1)(c1ccccc1)[C@H](Oc1nc(C)cc(C)n1)C(=O)O [Ambrisentan sodium salt (amorphous), ambrisentan sodium salt]",,>10000,
"COC(c1ccccc1)(c1ccccc1)[C@H](Oc1nc(C)cc(C)n1)C(=O)O [Ambrisentan sodium salt (crystalline), ambrisentan sodium salt]",,>5000,
"COC(c1ccccc1)(c1ccccc1)[C@H](Oc1nc(C)cc(C)n1)C(=O)O [Ambrisentan tert-butylammonium salt, ambrisentan tert-butylammonium salt]",>6000 µg/mL,,
